These results are taken from US6753337B2, “Alkynyl containing hydroxamic acid compounds as matrix metalloproteinase/tace inhibitors” (Wyeth Holdings Corporation, priority 1999, dated 2004).

One assay has as its system THP-1 cells. The assay can be described thus: Human monocytic THP-1 cell differentiation assay for soluble proteins (THP-1 soluble protein assay). The assay is classed as cell-based. The following applies: LPS-stimulated THP-1 cells, soluble protein not given. The text has this: Mitogenic stimulation of THP-1 cells cause differentiation into macrophage like cells with concomitant secretion of tumor necrosis factor (TNF-α) and TNF receptor (TNF-R p75/80 and TNF-R p55160) and Interleukin-8 (IL-8), among other proteins. In addition, non-stimulated THP-1 cells shed both the p75/80 and the p55/60 receptors over time. The release of membrane bound TNF-α and possibly TNF-R p75/80 and TNF-R p55/60, but not IL-8, is mediated by an enzyme called TNF-α converting enzyme or TACE.
THP-1 cells (from ATCC) are a human monocytic cell line which were obtained from the peripheral blood of a person with acute monocytic leukemia. They can be grown in culture and differentiated into macrophage like cells by stimulation with mitogens.
Each vial of cells are cultured for about two weeks prior to being used for an assay and then are used for only 4 to 6 weeks to screen compounds.
Cell exposure to DMSO was limited to 0.1% final concentration. […] Compounds can be evaluated for their effect on basal (non-stimulated) shedding of the receptors by replacing the LPS with […] of THP-1 media.
Plates are placed into an incubator set at 5% CO2 and at 37° C. After 4 hours of incubation, […] of tissue culture supernatant (TCS) is removed for use in an TNF-α ELISA. Following 24 hours of incubation, […] of TCS is removed and used for analysis in TNF-R p75/80, TNF-R p55160 and IL-8 ELISAs.
In addition, at the 24 hours timepoint, and the cells for each treatment group are collected by resuspension in 500 μl/well of THP-1 media and transferred into a FACS tube. […] The samples are run on a Becton Dickinson FaxCaliber FLOW cytometry machine and the amount of dye taken up by each cell is measured in the high red wavelength (FL3). Only cells with compromised membranes (dead or dying) can take up PI. The percent of live cells is calculated by the number of cells not stained with PI, divided by the total number of cells in the sample. The viability values calculated for the drug treated groups were compared to the viability value calculated for the vehicle treated mitogen stimulated group (“vehicle positive control”) to determine the “percent change from control”. This “percent change from control” value is an indicator of drug toxicity.
The quantity of soluble TNF-α, TNF-R p75/80 and TNF-R p55160 and IL-8 in the TCS of the THP-1 cell cultures are obtained with commercially available ELISAs from R&D Systems, by extrapolation from a standard curve generated with kit standards. The number of cells that either take up or exclude PI are measured by the FLOW cytometry machine and visualized by histograms using commercially available Cytologic software for each treatment group including all controls.
Biological variability in the magnitude of the response of THP-1 cell cultures requires that experiments be compared on the basis of percent change from “vehicle positive control” for each drug concentration. Percent change in each soluble protein evaluated from the “vehicle positive control” was calculated for each compound concentration with the following formula: [formula]
For the soluble protein (TNF-α, p75/80, p55/60, IL-8) studies under stimulated conditions, the mean pg/ml of duplicate wells were determined and the results expressed as percent change from “vehicle positive control”. For the soluble protein (p75/80 and p55/60 receptors) studies under non-stimulated conditions, the mean pg/ml of duplicate wells were determined and the results expressed as percent change from “vehicle positive control” utilizing the following formula: [formula]
IC50 values for each compound are calculated by non-linear regression analysis using customized software utilizing the JUMP statistical package.
For the cell viability studies, the viabilities (PI exclusion) of pooled duplicate wells were determined and the results expressed as % change from “vehicle positive control”.

In the next assay the target is MMP-9 (Homo sapiens, UniProt P14780). The assay can be described thus: MMP-9 inhibition (thiopeptide or fluorescent peptide substrate). The assay is classed as biochemical. The following applies: read-out: MMP9 IC50. As for the experimental part: These standard pharmacological test procedures are based on the cleavage of a thiopeptide substrates such as Ac-Pro-Leu-Gly(2-mercapto-4-methyl-pentanoyl)-Leu-Gly-OEt by the matrix metalloproteinases MMP-1, MMP-13 (collagenases) or MMP-9 (gelatinase), which results in the release of a substrate product that reacts colorimetrically with DTNB (5,5′-dithiobis(2-nitro-benzoic acid)). The enzyme activity is measured by the rate of the color increase. The thiopeptide substrate is made up fresh as a 20 mM stock in 100% DMSO and the DTNB is dissolved in 100% DMSO as a 100 mM stock and stored in the dark at room temperature. Both the substrate and DTNB are diluted together to 1 mM with substrate buffer (50 mM HEPES pH 7.5, 5 mM CaCl2) before use. The stock of enzyme is diluted with buffer (50 mM HEPES, pH 7.5, 5 mM CaCl2, 0.02% Brij) to the desired final concentration. The buffer, enzyme, vehicle or inhibitor, and DTNB/substrate are added in this order to a 96 well plate (total reaction volume of 200 μl) and the increase in color is monitored spectrophotometrically for 5 minutes at 405 nm on a plate reader and the increase in color over time is plotted as a linear line.
Alternatively, a fluorescent peptide substrate is used. In this test procedure, the peptide substrate contains a fluorescent group and a quenching group. Upon cleavage of the substrate by an MMP, the fluorescence that is generated is quantitated on the fluorescence plate reader. The assay is run in HCBC assay buffer (50 mM HEPES, pH 7.0, 5 mM Ca^+2, 0.02% Brij, 0.5% Cysteine), with human recombinant MMP-1, MMP-9, or MMP-13. The substrate is dissolved in methanol and stored frozen in 1 mM aliquots. For the assay, substrate and enzymes are diluted in HCBC buffer to the desired concentrations. Compounds are added to the 96 well plate containing enzyme and the reaction is started by the addition of substrate. The reaction is read (excitation 340 nm, emission 444 nm) for 10 min. and the increase in fluorescence over time is plotted as a linear line.
For either the thiopeptide or fluorescent peptide test procedures, the slope of the line is calculated and represents the reaction rate. The linearity of the reaction rate is confirmed (r^2>0.85). The mean (x±sem) of the control rate is calculated and compared for statistical significance (p<0.05) with drug-treated rates using Dunnett's multiple comparison test. Dose-response relationships can be generated using multiple doses of drug and IC50 values with 95% CI are estimated using linear regression.

Sequence of MMP-9 (P14780 94-707): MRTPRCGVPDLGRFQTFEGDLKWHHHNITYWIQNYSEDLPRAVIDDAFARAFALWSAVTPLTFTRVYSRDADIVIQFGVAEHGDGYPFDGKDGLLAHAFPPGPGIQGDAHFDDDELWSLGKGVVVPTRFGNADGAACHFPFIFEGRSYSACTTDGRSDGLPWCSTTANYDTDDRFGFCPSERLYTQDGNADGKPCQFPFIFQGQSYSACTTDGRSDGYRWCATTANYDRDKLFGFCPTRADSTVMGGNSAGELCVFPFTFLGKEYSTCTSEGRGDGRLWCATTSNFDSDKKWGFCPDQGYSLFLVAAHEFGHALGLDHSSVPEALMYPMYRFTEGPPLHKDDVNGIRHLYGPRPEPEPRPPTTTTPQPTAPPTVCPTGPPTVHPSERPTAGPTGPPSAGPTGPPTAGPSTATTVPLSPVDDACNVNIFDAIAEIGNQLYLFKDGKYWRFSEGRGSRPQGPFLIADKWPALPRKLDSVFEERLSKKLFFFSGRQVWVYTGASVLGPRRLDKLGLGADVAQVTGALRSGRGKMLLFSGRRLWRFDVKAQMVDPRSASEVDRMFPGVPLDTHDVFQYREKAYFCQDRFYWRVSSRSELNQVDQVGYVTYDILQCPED

Turning to `CC#CCOc1ccc(S(=O)(=O)C2(C(=O)NO)CCN(Cc3ccc(Br)cc3)CC2)cc1` [Example 1, 1-(4-Bromo-benzyl)-4-(4-but-2-ynyxoy-benzenesulfonyl)-piperdine-4-carboxylic acid hydroxyamide], in the assay on THP-1 cells, at 3 µM the inhibition was 46%. For the same compound, the IC50 on MMP-9 is 385 nM.
`CC#CCOc1ccc(S(=O)(=O)C2(C(=O)NO)CCN(Cc3ccc(OC)cc3)CC2)cc1` [Example 2, 4-(4-But-2-ynyloxy-benzenesulfonyl)-1-(4-methoxy-benzyl)-piperdine-4-carboxylic acid hydroxyamide] yielded an inhibition at 3 µM with THP-1 cells of 68%. The IC50 on MMP-9 came to 164 nM.
Consider `CC#CCOc1ccc(S(=O)(=O)C2(C(=O)NO)CCN(Cc3ccc(Cl)cc3)CC2)cc1` [Example 3, 4-(4-But-2-ynyloxy-benzenesulfonyl)-1-(4-chloro-benzyl)-piperdine-4-carboxylic acid hydroxyamide], for which the inhibition at 3 µM in the assay on THP-1 cells worked out at 34%. For the same compound, the IC50 on MMP-9 was 280 nM.
As for `CC#CCOc1ccc(S(=O)(=O)C2(C(=O)NO)CCN(Cc3ccccc3)CC2)cc1` [Example 4, 1-Benzyl-4-(4-but-2-ynyloxy-benzenesulfonyl)-piperdine-4-carboxylic acid hydroxyamide], in the assay on THP-1 cells, 3 µM produced 25% inhibition. In addition, the IC50 at MMP-9 was 148 nM.
The like results for `CCC#CCOc1ccc(S(=O)(=O)C2(C(=O)NO)CCN(Cc3ccc(Br)cc3)CC2)cc1` [Example 5, 1-(4-Bromo-benzyl)-4-(4-pent-2-ynyloxy-benzenesulfonyl)-piperdine-4-carboxylic acid hydroxyamide] were, in that order, 30% and 400 nM.
For `CC#CCOc1ccc(S(=O)(=O)C2(C(=O)NO)CCN(Cc3ccc(F)cc3)CC2)cc1` [Example 7, 4-(4-But-2-ynyloxy-benzenesulfonyl)-1-(4-fluoro-benzyl)-piperidine-4-carboxylic acid hydroxyamide], in that order: 21% and 225 nM.
`CC#CCOc1ccc(S(=O)(=O)C2(C(=O)NO)CCN(Cc3ccc(C#N)cc3)CC2)cc1` [Example 8, 4-(4-But-2-ynyloxy-benzenesulfonyl)-1-(4-cyano-benzyl)-piperidine-4-carboxylic acid hydroxyamide] returned an inhibition at 3 µM in the assay with THP-1 cells of 21%. Further, at MMP-9, the IC50 amounted to 218 nM.
In the assay on THP-1 cells, `CC#CCOc1ccc(S(=O)(=O)C2(C(=O)NO)CCN(Cc3ccc(C)cc3)CC2)cc1` [Example 9, 4-(4-But-2-ynyloxy-benzenesulfonyl)-1-(4-methyl-benzyl)-piperidine-4-carboxylic acid hydroxamide] gave an inhibition at 3 µM of 12%. Further, the IC50 on MMP-9 was 96.2 nM.
Consider `C#CCOc1ccc(S(=O)(=O)C2(C(=O)NO)CCN(Cc3ccc(Br)cc3)CC2)cc1` [Example 11, 1-(4-Bromo-benzyl)-4-(4-prop-2-ynyloxy-benzenesulfonyl)-piperdine-4-carboxylic acid hydroxyamide], for which the inhibition at 3 µM in the assay on THP-1 cells was 7%. In addition, the IC50 at MMP-9 amounted to 5.8 nM.
Turning to `O=C(NO)C1(S(=O)(=O)c2ccc(OCC#CCN3CCCCC3)cc2)CCN(Cc2ccc(Br)cc2)CC1` [Example 12, 1-(4-bromo-benzyl)-4-[4-(4-piperidin-1-yl-but-2-ynyloxy)-benzenesulfonyl]-piperidine-4-carboxylic acid hydroxyamide], testing at 3 µM in the assay on THP-1 cells gave an inhibition of 58%. For the same compound, the IC50 on MMP-9 is 1000 nM.
The like results for `CC#CCOc1ccc(S(=O)(=O)C2(C(=O)NO)CCOCC2)cc1` [Example 20, 4-{[4-(2-butynyloxy)phenyl]sulfonyl}-N-hydroxytetrahydro-2H-pyran-4-carboxamide] were, in that order, 47% and 568 nM.
The like results for `CC#CCOc1cccc(S(=O)(=O)C2(C(=O)NO)CCN(Cc3ccccc3)CC2)c1` [Example 21, 1-benzyl-4-{[3-(2-butynyloxy)phenyl]sulfonyl}-N-hydroxy-4-piperdine carboxamide] were, in that order, 6% and 3500 nM.
In turn, `CC#CCOc1ccc(S(=O)(=O)C2(C(=O)NO)CCN(C(C)C)CC2)cc1` [Example 22, 4-{[4-(2-butynyloxy)phenyl]sulfonyl}-N-hydroxy-1-isopropyl-4-piperidine carboxamide] showed an inhibition at 3 µM in the assay with THP-1 cells of 5%. Further, the IC50 on MMP-9 came to 1810 nM.
For `CC#CCOc1ccc(S(=O)(=O)C2(C(=O)NO)CCN(Cc3cccnc3)CC2)cc1` [Example 23, 4-{[4-(2-butynyloxy)phenyl]sulfonyl}-N-hydroxy-1-(3-pyridinylmethyl)-4-piperidine carboxamide], in that order: 62% and 160 nM.
For the compound `CC#CCOc1ccc(S(=O)(=O)C2(C(=O)NO)CCCN(CC)C2)cc1` (stereo not drawn) [Example 24, 3-{[4-(2-Butynyloxy)phenyl]sulfonyl}-1-ethyl-N-hydroxy-3-piperidinecarboxamide], the inhibition at 3 µM in the assay with THP-1 cells is 41%. Moreover, at MMP-9, the IC50 was 2080 nM.
For `CC#CCOc1ccc(S(=O)(=O)C2(C(=O)NO)CCCN(Cc3ccc(Cl)cc3)C2)cc1` (stereo not drawn) [Example 25, 3-{[4-(2-butynyloxy)phenyl]sulfonyl}-1-(4-chlorobenzyl)-N-hydroxy-3-piperidinecarboxamide], in that order: 3% and 2740 nM.
For `CC#CCOc1ccc(S(=O)(=O)C2(C(=O)NO)CCN(Cc3ccc(OCCN4CCCCC4)cc3)CC2)cc1` [Example 26, 4-{[4-(2-Butynyloxy)phenyl]sulfonyl}-1-[4-(2-piperidin-1-yl-ethoxy)-benzyl]-piperidine-4-carboxylic acid hydroxyamide], in that order: 63% and 25.1 nM.
The like results for `CC#CCOc1ccc(S(=O)(=O)C2(C(=O)NO)CCN(C(CC)CC)CC2)cc1` [Example 27, 4-{[4-(2-Butynyloxy)phenyl]sulfonyl}-1-(3-pentanyl)-piperidine-4-carboxylic acid hydroxyamide] were, in that order, 13% and 1540 nM.

Broadly, the inhibition is how much of the control response was suppressed. What is called IC50 is the concentration needed to halve the response being measured.
